Data: patent EP0378255B1, “2-Aminopyrimidinone derivatives” (JANSSEN PHARMACEUTICA N.V., priority 1989, dated 1990)
Read-outs that look alike come from different tables or passages of the source.

Legend:
Norepinephrine = assay: Combined Apomorphine, Tryptamine and Norepinephrine (ATN) test in rats: norepinephrine part; assay type: in vivo; settings: Rattus norvegicus; read-out: Combined ATN test in rats ED₅₀ values (NOR)
Description: (§1) Int. Pharmacodyn. Ther., 227, 238-253, 1977. Further the activity of the subject compounds as serotonin antagonists is evidenced by the experimental data obtained in the "Gastric Lesions induced by compound 48/80 in rats" test, described in U.S.-4,335,127. […] All tests were carried out following the procedures described in the cited references and the experimental data are shown in Table 8.

Apomorphine = assay: Combined Apomorphine, Tryptamine and Norepinephrine (ATN) test in rats: apomorphine part; assay type: in vivo; settings: Rattus norvegicus; read-out: Combined ATN test in rats ED₅₀ values (APO)
compound 48/80 [1] = assay: Gastric Lesions induced by compound 48/80 in rats (serotonin antagonism); assay type: in vivo; settings: Rattus norvegicus, read-out: Compound 48/80 tests ED₅₀ values Gastric lesions
Description: as §1

compound 48/80 [2] = assay: Protection of Rats from compound 48/80 induced lethality (antihistaminic activity); assay type: in vivo; settings: Rattus norvegicus, read-out: Compound 48/80 tests ED₅₀ values Lethality
Description: as §1

Tryptamine = assay: Combined Apomorphine, Tryptamine and Norepinephrine (ATN) test in rats: tryptamine part; assay type: in vivo; settings: Rattus norvegicus
Wistar rats = settings: separated group of 8 rats, cited from earlier work
[3] = convulsions, read-out: Combined ATN test in rats ED₅₀ values (TRY) convulsions
[4] = hyperaemia, read-out: Combined ATN test in rats ED₅₀ values (TRY) hyperaemia

Row | SMILES | ED50 (Norepinephrine) | ED50 (Apomorphine) | ED50 (compound 48/80 [1]) | ED50 (compound 48/80 [2]) | ED50 (Tryptamine; [3]) | ED50 (Tryptamine; [4]) | effect on SWS2 (Wistar rats; 0.63 mg/kg, for 8 h, at the expense of W, SWS1 and PS) | effects on sleep-wakefulness patterns (Wistar rats; doses of 0.04 and 0.16 mg/kg)
1 | Cc1nc2n(C)ncn2c(=O)c1CCN1CCC(c2noc3cc(F)ccc23)CC1 [Compound 89] | 0.31 mg/kg | 0.08 mg/kg | 0.16 mg/kg | 0.02 mg/kg | 0.08 mg/kg | ≤ 0.0025 mg/kg | – | –
2 | CC1=NN(C)c2nc(C)c(CCN3CCN(c4noc5ccccc45)CC3)c(=O)n2C1 [Compound 112] | 0.63 mg/kg | 0.08 mg/kg | 0.04 mg/kg | 0.16 mg/kg | 0.31 mg/kg | 0.005 mg/kg | – | –
3 | Cc1nc2n(C)ccn2c(=O)c1CCN1CCN(c2nsc3ccccc23)CC1 [Compound 124] | 5 mg/kg | 0.08 mg/kg | 0.04 mg/kg | 0.31 mg/kg | 0.02 mg/kg | 0.00125 mg/kg | – | –
4 | CC(=O)Nc1nc(C)c(CCN2CCC(C(=O)c3ccc(F)cc3)CC2)c(=O)n1C [Compound 34] | 1.25 mg/kg | 0.31 mg/kg | 0.04 mg/kg | – | 0.31 mg/kg | 0.005 mg/kg | – | –
5 | Cc1nc2n(c(=O)c1CCN1CCN(c3noc4ccccc34)CC1)CCCN2C [Compound 120] | 1.25 mg/kg | 0.02 mg/kg | 0.63 mg/kg | 0.01 mg/kg | 0.08 mg/kg | 0.02 mg/kg | – | –
6 | Cc1nc2n(C)nc(C)n2c(=O)c1CCN1CCC(c2noc3cc(F)ccc23)CC1 [Compound 88] | 0.16 mg/kg | 0.08 mg/kg | 0.04 mg/kg | – | 0.08 mg/kg | 0.00125 mg/kg | – | –
7 | Cc1nc2sccn2c(=O)c1CCN1CCC(=C(c2ccc(F)cc2)c2ccc(F)cc2)CC1 [ritanserin, 6-[2-[4-[bis(4-fluorophenyl)methylene]-1-piperidinyl]ethyl]-7-methyl-5H-thiazolo[3,2-a]pyrimidin-5-one] | – | – | – | – | – | – | significant increase of SWS2 | no major effects on sleep-wakefulness patterns
8 | Cc1nc2n(C)ncn2c(=O)c1CCN1CCN(c2noc3ccccc23)CC1 [Compound 114] | 1.25 mg/kg | 0.08 mg/kg | 0.16 mg/kg | – | 0.31 mg/kg | ≤ 0.04 mg/kg | – | –
9 | Cc1nc(NCc2ccccn2)n(C)c(=O)c1CCN1CCC(c2noc3cc(F)ccc23)CC1 [Compound 19] | 0.08 mg/kg | 0.08 mg/kg | 0.04 mg/kg | – | 0.31 mg/kg | 0.0025 mg/kg | – | –
